Assay results taken from BigSolDB 2.1.

CC(C(=O)O)c1ccc2c(c1)[nH]c1ccc(Cl)cc12 (stereo not given)
solubility (mole fraction)
Conditions | in acetic acid | in ethylene glycol | in formic acid | in glycerin | in isobutanol | in isopropanol | in n-butanol | in n-octanol | in n-propanol | in propylene glycol
288.15 K | 0.00687 | 0.00349 | 0.000435 | 0.000115 | 0.00942 | 0.0145 | 0.014 | 0.0143 | 0.0157 | 0.0055
293.15 K | 0.00706 | 0.00433 | 0.000547 | 0.000147 | 0.0103 | 0.0179 | 0.0174 | 0.0177 | 0.0195 | 0.0069
298.15 K | 0.00863 | 0.00585 | 0.00074 | 0.000209 | 0.0137 | 0.0267 | 0.0243 | 0.0248 | 0.0315 | 0.00753
303.15 K | 0.00998 | 0.00715 | 0.00116 | 0.000301 | 0.0177 | 0.031 | 0.0283 | 0.0295 | 0.0378 | 0.00936
308.15 K | 0.0126 | 0.00861 | 0.00146 | 0.000437 | 0.0243 | 0.0359 | 0.0346 | 0.035 | 0.0418 | 0.0121
313.15 K | 0.0174 | 0.0117 | 0.00201 | 0.00052 | 0.0287 | 0.0436 | 0.0389 | 0.0391 | 0.0507 | 0.0153
318.15 K | 0.0216 | 0.0168 | 0.00287 | 0.000851 | 0.0357 | 0.048 | 0.0441 | 0.0448 | 0.0598 | 0.0183
323.15 K | 0.0268 | 0.0194 | 0.00388 | 0.00133 | 0.0432 | 0.0601 | 0.0526 | 0.0537 | 0.0743 | 0.0223
